Measured values taken from patent US20240209022A1, “NOVEL PEPTIDE HAVING ANTI-INFLAMMATORY AND TISSUE REGENERATIVE ACTIONS” (KOREA RESEARCH INSTITUTE OF BIOSCIENCE AND BIOTECHNOLOGY, priority 2020, published 2024).

Key:
Assay type in all cases: in vivo, C57BL/6J mice
[1] = test system: depression and anxiety model; experiment: LPS-induced depression and anxiety model (TST, FST, EPM); conditions: vs PBS buffer group; for immobility time in forced swim test / immobility time in tail suspension test: oral, LPS-induced; for Ifnγ mRNA expression in brain tissue (hippocampus) / Il-10 mRNA expression in brain tissue (hippocampus): RT-qPCR
Experimental: By Daehan Biolink, 7-week-old male C57BL/6J mice weighing 20-22 g were supplied, and the animals were sufficiently supplied with solid feed and water until the day of the experiment, acclimatized for 1 week while maintaining an environment with a temperature of 22° C. 2° C., a humidity of 55%±15%, and a 12-hour light/dark cycle, and then used in the experiment. From 3 days before inducing depression and anxiety, the peptide was dissolved in PBS buffer and orally administered to the mice by 150 μL per animal at the same time once a day. Amuc_1409 or PEP001, PEP002, PEP003, PEP004, or PEP005 was dissolved in PBS buffer at a concentration of 6.7 μM and then used, and novel tetrapeptides PEP006, PEP007, PEP008, PEP009, and PEP010 and novel tripeptides PEP011, PEP012, and PEP013 were each dissolved in PBS buffer at a concentration of 0.2 μg/150 μL and then used. On the 3rd day of peptide administration, lipopolysaccharide (LPS) dissolved in PBS buffer was intraperitoneally injected at a concentration of 0.8 mg/kg to induce depression and anxiety. Tail suspension test (TST) and forced swim test (FST) were conducted to analyze the effect on depression. As the TST, a tail suspension device was installed in an open white acrylic box of 20 cm×25 cm×30 cm size, and the mouse was suspended upside down at a height where the mouse's tail would not touch the floor, and then the time for which the mouse maintained immobility while observing in the same environment was measured for 6 minutes. […] Water at around 25° C. was filled in a transparent acrylic cylinder (45 cm depth×18 cm diameter) up to 30 cm from the bottom, the mouse was exposed to water, and the time for which the mouse maintained immobility while swimming was measured for 6 minutes. […] An elevated plus-maze (EPM) test was performed to analyze the effect on anxiety level. The EPM device consists of two open arms (50 cm×10 cm) and two […] (50 cm×10 cm) at a height of 50 cm from the floor, and the arms are connected by a central area of 10 cm×10 cm. At the start of the experiment, the mouse was placed in the center of the maze and the time for which the mouse stayed in the open arm was measured for a total of 5 minutes using a video camera, and the percentage of time spent in the open arm was calculated and recorded [(time spent in open arm/time spent in open and closed arms)×100]. In addition, in order to examine the anti-inflammatory activity according to the administration of Amuc_1409 and PEP001, PEP002, PEP003, PEP004, and PEP005 in an animal model of depression and anxiety, the expression of Ifnγ and Il-10 mRNA, which are major inflammatory genes related to depression, in brain tissue (hippocampus) was examined.

[2] = test system: gastritis/gastric ulcer model; experiment: HCl/ethanol gastritis/gastric ulcer model; conditions: vs PBS buffer group; for degree of gastric mucosal damage (score): oral, 1 hour after HCl/ethanol; for Cox2 expression in gastric mucosal tissue / Il-1p expression in gastric mucosal tissue / Tnfα mRNA expression in gastric mucosal tissue / iNos mRNA expression in gastric mucosal tissue: RT-qPCR
Experimental: For a gastritis/gastric ulcer model, 7-week-old male C57BL/6J mice were used, and from 3 days before induction, the peptides of the present invention were dissolved in PBS buffer and then orally administered to the mice by 150 μL per animal at the same time once a day. Amuc_1409 or PEP001, PEP002, PEP003, PEP004, or PEP005 was dissolved in PBS buffer at a concentration of 6.7 μM, and novel tetrapeptides PEP006, PEP007, PEP008, PEP009, and PEP010 and novel tripeptides PEP011, PEP012, and PEP013 were each dissolved in PBS buffer at a concentration of 0.15 μg/150 μL (PEP006) or 0.2 μg/150 μL (PEP007, PEP008, PEP009, PEP010, PEP011, PEP012, and PEP013). For the induction of acute gastritis/gastric ulcer, 0.3 M HCl/60% ethanol was orally administered to the mice by 0.2 mL for each, the tissue was harvested after 1 hour, photographs of the inner surface of the stomach were taken, and the degree of damage to the stomach was compared. Measurements of gastritis/gastric ulcer indexes were converted into scores according to the degree of mucosal damage. A score of 0 was given if there was no damage, a score of 1 was given to an insignificant circle-shaped hemorrhagic corrosion site of less than 5 mm, a score of 2 was given to a hemorrhagic corrosion site with a length more than 5 mm, and a score of 3 was given to one or more hemorrhagic corrosion sites corresponding to the score of 2, a score of 4 was given to a hemorrhagic corrosion of more than 5 mm in length and less than 2 mm in width, a score of 5 was given to 2 to 3 hemorrhagic corrosions corresponding to the score of 4, a score of 6 was given to 4 to 5 hemorrhagic corrosions corresponding to the score of 4, a score of 7 was given to 6 or more hemorrhagic corrosions corresponding to the score of 4, and a score of 8 was given if there was hemorrhagic corrosion throughout the gastric mucosa. In order to confirm additional anti-inflammatory activity of the administered peptides, mRNA expression of inflammation-related genes, Tnfα, Il-1β, iNos, Cox2, and Il-10, in the gastric mucosal tissue was examined.

[3] = test system: full-thickness skin defect wound-induced model; experiment: Full-thickness skin defect wound-induced model (tail); conditions: 120 μM, 25 μL applied once a day for 28 days; vs vehicle
Experimental: In order to confirm the tissue regeneration efficacy of the novel peptides, an experiment was conducted using a wound-induced model induced by a full-thickness skin defect of mouse's tail. For a full-thickness skin defect wound-induced model, 9-week-old specific pathogen free (SPF) male C57BL/6J mice were anesthetized, and then in order to indicate full-thickness wounding, a full-thickness wound with a size of 10 mm×3 mm was made on the dorsal part of the mouse's tail, about 1.0 cm away from the base of the mouse's tail, using an aseptic dissection mass No. 10. Bleeding was stopped by compressing the wound, and the wound was covered with a film spray dressing (Cavilon, 3M). For 28 days from the day of wound induction, Amuc_1409 or PEP001 to PEP013 were each dissolved in vehicle (50% ethanol, 20% propylene glycol, 30% water) at a concentration of 120 μM and then applied to the wound site by 25 μL per animal once a day. For the control group, the same volume of vehicle (50% ethanol, 20% propylene glycol, 30% water) was applied to the wound site. The test was terminated on day 29 after wound induction. In order to observe the wound healing effect, the wound sites of animals in each test group were individually photographed using a digital camera at a constant height from the wound for 28 days at 7-day intervals from the day of wound induction, and the wound area was measured using the Image J Soft program.

| Substance | immobility time in forced swim test [1] | immobility time in tail suspension test [1] | degree of gastric mucosal damage (score) [2] | wound area [3] | wound size (visually confirmed) [3] | Ifnγ mRNA expression in brain tissue (hippocampus) [1] | Il-10 mRNA expression in brain tissue (hippocampus) [1] | time spent in the open arm, elevated plus-maze test [1] | Cox2 expression in gastric mucosal tissue [2] | Il-1p expression in gastric mucosal tissue [2] | Tnfα mRNA expression in gastric mucosal tissue [2] | iNos mRNA expression in gastric mucosal tissue [2] |
| --- | --- | --- | --- | --- | --- | --- | --- | --- | --- | --- | --- | --- |
| AGAY (PEP006) | tended to decrease | decreased | significantly decreased | significantly decreased | rapidly decreased | – | – | – | – | – | – | – |
| AGS [PEP012] | tended to decrease | decreased | significantly decreased | – | – | – | – | – | – | – | – | – |
| AIS [PEP013] | tended to decrease | decreased | significantly decreased | significantly decreased | rapidly decreased | – | – | – | – | – | – | – |
| AQS [PEP011] | tended to decrease | decreased | significantly decreased | significantly decreased | rapidly decreased | – | – | – | – | – | – | – |
| AVS (AVSSIKGAY) [PEP004] | significantly decreased | significantly decreased | significantly decreased | significantly decreased | rapidly decreased | significantly decreased | significantly increased | increased | significantly decreased | significantly decreased | significantly decreased | significantly decreased |
| AVSSI (PEP002) | significantly decreased | significantly decreased | significantly decreased | significantly decreased | rapidly decreased | significantly decreased | significantly increased | increased | significantly decreased | significantly decreased | significantly decreased | significantly decreased |
| AVSSIKGAY (PEP001) | significantly decreased | significantly decreased | significantly decreased | significantly decreased | rapidly decreased | significantly decreased | significantly increased | increased | significantly decreased | significantly decreased | significantly decreased | significantly decreased |
